The source made the active and inactive calls. How the calls were made is not given here.
target: Glycogen synthase kinase-3 beta splice variant X1 (Bos taurus) (UniProt A0A059UE90); test: Inhibition of bovine cerebral TPK1 assessed as reduction in P-GS1 phosphorylation using [32gammaP]ATP incubated for 2 hrs by liquid scintillation counting method

Row | SMILES | inhibition
1 | Cn1c(N2CCO[C@@H](c3ccc(N4CCC4)cc3)C2)nc(-c2ccncc2F)cc1=O | Active
2 | Cn1c(N2CCO[C@@H](c3ccc(OC4CCN(C(=O)c5ccccc5)CC4)cc3)C2)nc(-c2ccncc2F)cc1=O | Active
3 | Cn1c(N2CCO[C@@H](c3ccc(NS(C)(=O)=O)cc3)C2)nc(-c2ccncc2F)cc1=O | Active
4 | CC(=O)N(C)[C@@H]1CCN(c2ccc([C@H]3CN(c4nc(-c5ccncc5F)cc(=O)n4C)CCO3)cc2)C1 | Active
5 | Cc1cc(N2CCN(c3ccc(C4CN(c5nc(-c6ccncc6F)cc(=O)n5C)CCO4)cc3)CC2)n(-c2ccccc2)n1 (stereo unspecified) | Active
6 | Cn1c(N2CCO[C@@H](c3ccc(O)cc3)C2)nc(-c2ccncc2F)cc1=O | Active
7 | CC(C)Nc1ccc([C@H]2CN(c3nc(-c4ccncc4F)cc(=O)n3C)CCO2)cc1 | Active
8 | Cn1c(N2CCO[C@@H](c3ccc(N4CCCCC4)cc3)C2)nc(-c2ccncc2F)cc1=O | Active
9 | Cn1c(N2CCN[C@@H](c3ccc(N4CCC(N5CCCC5)CC4)cc3)C2)nc(-c2ccncc2F)cc1=O | Active
10 | Cn1c(N2CCO[C@@H](c3ccc(N4CCN(CCO)CC4)cc3)C2)nc(-c2ccncc2F)cc1=O | Active
11 | Cn1c(N2CCO[C@@H](c3ccc(NC(=O)CN4CCN(c5ccccc5)CC4)cc3)C2)nc(-c2ccncc2F)cc1=O | Active
12 | Cn1c(N2CCO[C@@H](c3ccc(N(C(=O)C4CC4)C4CCCCC4)cc3)C2)nc(-c2ccncc2F)cc1=O | Active
13 | CCc1nc(-c2ccc([C@H]3CN(c4nc(-c5ccncc5F)cc(=O)n4C)CCN3)cc2)no1 | Active
14 | CC(C)N1CCN(c2ccc([C@H]3CN(c4nc(-c5ccncc5F)cc(=O)n4C)CCO3)cc2)CC1 | Active
15 | Cn1c(N2CCN[C@@H](c3ccc(C#N)cc3)C2)nc(-c2ccncc2F)cc1=O | Active
16 | Cn1c(N2CCN[C@@H](c3ccc(N4CCCC4)cc3)C2)nc(-c2ccncc2F)cc1=O | Active
17 | Cn1c(N2CCO[C@@H](c3ccc(N4CCOC4=O)cc3)C2)nc(-c2ccncc2F)cc1=O | Active
18 | CN1CCC2(CCN(c3ccc([C@H]4CN(c5nc(-c6ccncc6F)cc(=O)n5C)CCN4)cc3)CC2)C1 | Active
19 | Cn1c(N2CCO[C@@H](c3ccc(OCCN4CCCC4)cc3)C2)nc(-c2ccncc2F)cc1=O | Active
20 | CN(C)[C@@H]1CCN(c2ccc([C@H]3CN(c4nc(-c5ccncc5F)cc(=O)n4C)CCN3)cc2)C1 | Active
21 | COc1ccc(-c2ccc([C@H]3CN(c4nc(-c5ccncc5F)cc(=O)n4C)CCN3)cc2)c(OC)c1 | Active

Row | SMILES | inhibition
22 | CNc1ccc([C@H]2CN(c3nc(-c4ccncc4F)cc(=O)n3C)CCO2)cc1 | Active
23 | Cn1c(N2CCO[C@@H](c3ccc(N(C4CCCCC4)S(=O)(=O)c4ccccc4)cc3)C2)nc(-c2ccncc2F)cc1=O | Active
24 | CSc1ccc([C@H]2CN(c3nc(-c4ccncc4F)cc(=O)n3C)CCO2)cc1 | Active
25 | Cn1c(N2CCN[C@@H](c3ccc(-c4ccc(OC(F)(F)F)cc4)cc3)C2)nc(-c2ccncc2F)cc1=O | Active
26 | Cn1c(N2CCO[C@@H](c3ccc(N4CCc5ccccc54)cc3)C2)nc(-c2ccncc2F)cc1=O | Active
27 | Cn1c(N2CCOC(c3ccc(Br)cc3)C2)nc(-c2ccncc2F)cc1=O (stereo unspecified) | Active
28 | Cn1c(N2CCOC(c3ccc4c(c3)NC(=O)CO4)C2)nc(-c2ccncc2F)cc1=O (racemic) | Active
29 | Cn1c(N2CCO[C@@H](c3ccc(NC4CCCCC4)cc3)C2)nc(-c2ccncc2F)cc1=O | Active
30 | CN(C)CCCOc1ccc([C@H]2CN(c3nc(-c4ccncc4F)cc(=O)n3C)CCO2)cc1 | Active
31 | Cn1c(N2CCO[C@@H](c3ccc(OC(F)(F)F)cc3)C2)nc(-c2ccncc2F)cc1=O | Active
32 | Cn1c(N2CCO[C@@H](c3ccc(N4CCN(c5ccccc5)CC4)cc3)C2)nc(-c2ccncc2F)cc1=O | Active
33 | Cc1nc(-c2ccc(C3CN(c4nc(-c5ccncc5F)cc(=O)n4C)CCN3)cc2)no1 (stereo unspecified) | Active
34 | Cn1c(N2CCN[C@@H](c3ccc(N4CC[C@H](C#N)C4)cc3)C2)nc(-c2ccncc2F)cc1=O | Active
35 | Cn1c(N2CCOC(c3cccc(-c4nccs4)c3)C2)nc(-c2ccncc2F)cc1=O (stereo unspecified) | Active
36 | Cn1c(N2CCO[C@@H](c3ccc(N4CCOCC4)cc3)C2)nc(-c2ccncc2F)cc1=O | Active
37 | Cn1c(N2CCN[C@@H](c3ccc(-c4ccc(C(F)(F)F)cc4)cc3)C2)nc(-c2ccncc2F)cc1=O | Active
38 | Cn1c(N2CCO[C@@H](c3ccc(CN4CCOCC4)cc3)C2)nc(-c2ccncc2F)cc1=O | Active
39 | Cn1c(N2CCN[C@@H](c3ccc(-c4ccc(Cl)c(Cl)c4)cc3)C2)nc(-c2ccncc2F)cc1=O | Active
40 | CC(=O)N(c1ccc([C@H]2CN(c3nc(-c4ccncc4F)cc(=O)n3C)CCO2)cc1)C(C)C | Active
41 | COC(C)(C)C(=O)N(C)c1ccc([C@H]2CN(c3nc(-c4ccncc4F)cc(=O)n3C)CCO2)cc1 | Active
42 | CNC(=S)Nc1ccc([C@H]2CN(c3nc(-c4ccncc4F)cc(=O)n3C)CCO2)cc1 | Active

Row | SMILES | inhibition
43 | CN(c1ccc([C@H]2CN(c3nc(-c4ccncc4F)cc(=O)n3C)CCO2)cc1)C1CCCCCC1 | Active
44 | Cn1c(N2CCO[C@@H](c3cccc(N)c3)C2)nc(-c2ccncc2F)cc1=O | Active
45 | Cn1c(N2CCO[C@@H](c3ccc(OCC4CC4)cc3)C2)nc(-c2ccncc2F)cc1=O | Active
46 | Cn1c(N2CCO[C@@H](c3ccc(F)cc3)C2)nc(-c2ccncc2F)cc1=O | Active
47 | Cn1c(N2CCOC(c3ccc4c(c3)C(C)(C)CC(=O)N4)C2)nc(-c2ccncc2F)cc1=O (racemic) | Active
48 | Cn1c(N2CCO[C@@H](c3cccc(NC(=O)C4CC4)c3)C2)nc(-c2ccncc2F)cc1=O | Active
49 | Cn1c(N2CCO[C@@H](c3ccc(N)c(F)c3)C2)nc(-c2ccncc2F)cc1=O | Active
50 | CN(c1ccc([C@H]2CN(c3nc(-c4ccncc4F)cc(=O)n3C)CCO2)cc1)C1CCCC1 | Active
51 | CN1CCC(Oc2ccc([C@H]3CN(c4nc(-c5ccncc5F)cc(=O)n4C)CCO3)cc2)CC1 | Active
52 | CC(=O)c1ccc([C@H]2CN(c3nc(-c4ccncc4F)cc(=O)n3C)CCO2)cc1 | Active
53 | Cn1c(N2CCN[C@@H](c3ccc(N4CC[C@H](C(N)=O)C4)cc3)C2)nc(-c2ccncc2F)cc1=O | Active
54 | Cn1c(N2CCN[C@@H](c3ccc(N4CCC(O)CC4)cc3)C2)nc(-c2ccncc2F)cc1=O | Active
55 | Cn1c(N2CCOC(c3ccc4c(c3)CC(=O)N4)C2)nc(-c2ccncc2F)cc1=O (racemic) | Active
56 | CN(c1ccc([C@H]2CN(c3nc(-c4ccncc4F)cc(=O)n3C)CCO2)cc1)C12CC3CC(CC(C3)C1)C2 | Active
57 | CSc1ccc(-c2ccc([C@H]3CN(c4nc(-c5ccncc5F)cc(=O)n4C)CCN3)cc2)cc1 | Active
58 | CN(C)C1CCN(c2ccc([C@H]3CN(c4nc(-c5ccncc5F)cc(=O)n4C)CCN3)cc2)CC1 | Active
59 | Cn1c(N2CCO[C@@H](c3ccc(Nc4ccccn4)cc3)C2)nc(-c2ccncc2F)cc1=O | Active
60 | CN(C)[C@H]1CCN(c2ccc([C@H]3CN(c4nc(-c5ccncc5F)cc(=O)n4C)CCN3)cc2)C1 | Active
61 | CC(=O)OCCN1CCN(c2ccc([C@H]3CN(c4nc(-c5ccncc5F)cc(=O)n4C)CCN3)cc2)CC1 | Active
62 | Cn1c(N2CCN[C@@H](c3ccc(N4CC[C@H](N5CCCC5)C4)cc3)C2)nc(-c2ccncc2F)cc1=O | Active
63 | Cc1ccc(-c2ccc([C@H]3CN(c4nc(-c5ccncc5F)cc(=O)n4C)CCN3)cc2)cc1 | Active

Row | SMILES | inhibition
64 | Cn1c(N2CCO[C@@H](c3ccc(F)cc3)C2)nc(-c2ccncc2F)c(F)c1=O | Active
65 | Cn1c(N2CCN[C@@H](c3ccc(N4CCN(CCO)CC4)cc3)C2)nc(-c2ccncc2F)cc1=O | Active
66 | CC(=O)N1CCN(CCOc2ccc([C@H]3CN(c4nc(-c5ccncc5F)cc(=O)n4C)CCO3)cc2)CC1 | Active
67 | Cn1c(N2CCO[C@@H](c3ccccc3)C2)nc(-c2ccncc2F)cc1=O | Active
68 | Cn1c(N2CCO[C@@H](c3ccc(NC45CC6CC(CC(C6)C4)C5)cc3)C2)nc(-c2ccncc2F)cc1=O | Active
69 | CN(c1ccc([C@H]2CN(c3nc(-c4ccncc4F)cc(=O)n3C)CCO2)cc1)C1CCOCC1 | Active
70 | Cn1c(N2CCO[C@@H](c3ccc(OCCN4CCNCC4)cc3)C2)nc(-c2ccncc2F)cc1=O | Active
71 | COc1ccc(NS(C)(=O)=O)cc1[C@H]1CN(c2nc(-c3ccncc3F)cc(=O)n2C)CCO1 | Active
72 | COCCN(c1ccc([C@H]2CN(c3nc(-c4ccncc4F)cc(=O)n3C)CCO2)cc1)C1CCCCC1 | Active
73 | CC(=O)N[C@H]1CCN(c2ccc([C@H]3CN(c4nc(-c5ccncc5F)cc(=O)n4C)CCO3)cc2)C1 | Active
74 | Cn1c(N2CCO[C@@H](c3ccc(OCCN4CCCCC4)cc3)C2)nc(-c2ccncc2F)cc1=O | Active
75 | Cn1c(N2CCO[C@@H](c3ccc(N4CC[C@@H](N5CCOCC5)C4)cc3)C2)nc(-c2ccncc2F)cc1=O | Active
76 | Cn1c(N2CCO[C@@H](c3ccc(OCCCN4CCCC4)cc3)C2)nc(-c2ccncc2F)cc1=O | Active
77 | Cn1c(N2CCO[C@@H](c3ccc(OCCCN4CCCCC4)cc3)C2)nc(-c2ccncc2F)cc1=O | Active
78 | Cn1c(N2CCN[C@@H](c3ccc(-c4ccc(N)cc4)cc3)C2)nc(-c2ccncc2F)cc1=O | Active
79 | CC(=O)N(C)c1ccc([C@H]2CN(c3nc(-c4ccncc4F)cc(=O)n3C)CCO2)cc1 | Active
80 | Cn1c(N2CCO[C@@H](c3ccc(NS(=O)(=O)CCl)cc3)C2)nc(-c2ccncc2F)cc1=O | Active
81 | CN1CCN(CCOc2ccc([C@H]3CN(c4nc(-c5ccncc5F)cc(=O)n4C)CCO3)cc2)CC1 | Active

Reference: ChEMBL document CHEMBL3727346, “6-(pyridinyl)-4-pyrimidone derivates as tau protein kinase 1 inhibitors” (2011)
